Results published in US10881712B2, “Neuroprotective agents derived from spider venom peptides” (THE UNIVERSITY OF QUEENSLAND, priority 2015, dated 2021).
“Also recorded” adds a separate entry of the source. Bridge positions count the residues as written; N and C are the ends. Ends that are not written are not given here. Peptide text beside a SMILES is read from it.

How the values were obtained:
[1] = target: T1, rASIC1a (Rattus norvegicus, UniProt P55926); test: Two-electrode voltage clamp (TEVC) on Xenopus laevis oocytes expressing homomeric rASIC1a; type: cell-based; conditions: for Rapidly reversible inhibition: Table 1; for Rapidly reversible inhibition / Reversibility of inhibition (in words): upon washout; for Extent of inhibition of ASIC1a currents (full or incomplete): at saturating concentrations; for % Residual Current: current remaining at saturating peptide concentrations; for Potency compared to wild-type Hi1a (in words): point mutants
T1 construct: expressed in transfected cells; host or cells: Xenopus laevis oocytes injected with cRNA
T1 sequence (P55926 1-526): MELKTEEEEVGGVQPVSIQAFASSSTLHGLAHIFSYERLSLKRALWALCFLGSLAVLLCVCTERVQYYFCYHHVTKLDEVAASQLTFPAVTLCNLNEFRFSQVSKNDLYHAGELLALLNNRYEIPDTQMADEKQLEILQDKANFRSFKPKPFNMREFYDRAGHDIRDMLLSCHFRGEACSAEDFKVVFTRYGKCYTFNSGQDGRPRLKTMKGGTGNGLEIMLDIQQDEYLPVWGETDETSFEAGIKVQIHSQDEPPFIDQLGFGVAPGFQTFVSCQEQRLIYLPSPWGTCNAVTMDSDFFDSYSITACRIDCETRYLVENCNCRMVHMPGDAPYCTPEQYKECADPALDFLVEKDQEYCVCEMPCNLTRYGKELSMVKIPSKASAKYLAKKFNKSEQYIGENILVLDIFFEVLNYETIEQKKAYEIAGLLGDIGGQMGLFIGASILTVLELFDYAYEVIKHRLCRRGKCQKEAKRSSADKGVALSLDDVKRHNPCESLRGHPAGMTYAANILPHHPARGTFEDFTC
Protocol: The ability of the peptides of the invention to modulate ASIC currents was assessed using two-electrode voltage clamp (TEVC) electrophysiology experiments performed on Xenopus laevis oocytes expressing homomeric ASIC channels. Xenopus oocytes are widely used as an expression system for functional characterisation of ion channel modulators. TEVC allows measurement of whole-cell ion channel currents while controlling the membrane potential.
Oocytes were harvested from anaesthetised female X. laevis then defolliculated by treatment with collagenase (Sigma, type I). Oocytes were injected with in vitro transcribed ASIC cRNA (capped RNA). Oocytes were kept at 17-18° C. in ND96 solution containing 96 mM NaCl, 2 mM KCl, 1.8 mM CaCl2, 2 mM MgCl2, 5 mM HEPES, 5 mM pyruvic acid, 50 μg/ml gentamicin (pH 7.4), and fetal horse serum (2.5%), and experiments were performed at room temperature (21-22° C.) 1-3 days after cRNA injection. Oocytes were clamped at −60 mV (Warner OC-725C oocyte clamp; Warner Instruments, CT, USA) using two standard glass microelectrodes of 0.5-2 MΩ resistance when filled with 3 M KCl. Data acquisition and analysis were performed using pCLAMP software, Version 10 (Axon Instruments, CA, USA). Currents were elicited by a drop in pH from 7.45 to 6.0 using a microperfusion system to allow rapid solution exchange. All experiments were performed using ND96 solution spiked with 0.1% BSA in order to minimise adsorption of peptides to plastic tubing.

[2] = test system: ASIC1a; conditions: McCarthy et al., 2015; cited from earlier work
[3] = test system: spontaneously hypertensive rats (SHR); test: Focal reperfusion (endothelin-1) stroke model in conscious SHR, i.c.v. administration; type: in vivo, rat; conditions: single i.c.v. dose two hours after stroke; Hi1a 2 ng/kg, PcTx1 and mutant 1 ng/kg; 72 h post-stroke
Protocol: The neuroprotective efficacy of Hi1a was assessed in a rat model of focal cerebral ischemia. In vivo experiments were conducted using a focal reperfusion model of stroke in conscious spontaneously hypertensive rats (SHR) as previously reported (McCarthy et al., Neuropharmacology 99, 650-657, 2015). Two 23-gauge stainless steel guide cannulae were stereotaxically implanted into anaesthetised animals (ketamine 75 mg/kg; xylazine 10 mg/kg; intraperitoneal) 5 days prior to stroke induction. The first cannula was implanted 3 mm dorsal to the right middle cerebral artery for stroke induction. The second cannula was implanted into the left lateral ventricle for drug administration. […]
Compared to models of middle cerebral artery occlusion (MCAO) achieved by surgical exposure of the artery, this model has the advantage of minimal surgical intervention in the brain, and the stroke is induced in the absence of anaesthetics, which can confound the results of drug studies (Callaway et al., 1999; Sharkey et al., 1993). Stroke-induced motor deficit was assessed by counting the number of foot faults made while rats traversed a gradually narrowing ledged beam (McCarthy et al., Stroke 40, 1482-1489, 2009). […] For the neurological score, postural abnormalities were assessed by elevating the rat by the tail above a flat surface and grading the severity of thorax twisting and the angle of forelimb extension. […]

| Molecule | IC50 [1] [nM] | Rapidly reversible inhibition [1] | Extent of inhibition of ASIC1a currents (full or incomplete) [1] | % Residual Current [1] [%] | Reversibility of inhibition (in words) [1] | other results |
| --- | --- | --- | --- | --- | --- | --- |
| SEDCIPKWKGCVNRHGDCCEGLECWKRRRSFEVCVPKTGDCIPKWKGCVNRHGDCCEGLECWKRRRSFEVCVPKTPKT (disulfide 4-19, 11-24, 18-34, 41-56, 48-61, 55-71) [EP 2] | 215 | No | full inhibition | 0 | slowly reversible | Fold increase in IC50 (decrease in potency) relative to wild-type Hi1a [1]: ~500 fold |
| SNECIRKWLSCVDRKNDCCEGLECWKRRHSFEVCVPIPGFCLVKWKQCDGRERDCCAGLECWKRSGNKSSVCAPIT (disulfide 4-19, 11-24, 18-34, 41-56, 48-61, 55-72) [Hi1a Y24W] | 0.537 | No | full inhibition | 0 |  |  |
| SNECIRKWKSCVDRKNDCCEGLECYKRRHSFEVCVPIPGFCLVKWKQCDGRERDCCAGLECWKRSGNKSSVCAPIT (disulfide 4-19, 11-24, 18-34, 41-56, 48-61, 55-72) [Hi1a L8K] | 0.976 | No |  | 30 |  | Potency compared to wild-type Hi1a (in words) [1]: little effect |
| PcTx1 mutant iso 2: Double-mutant PcTx1 analogue (R27A/V32A) that is inactive against ASIC1a (EDCIPKWKGCVNRHGDCCEGLECWKRARSFEACVPKTPKT; ends and bridges not checked; cysteine pairing not given here; UniProt P60514 1-40, looked up, variant R27A V32A) |  |  |  |  |  | Activity against ASIC1a [2]: inactive; Infarct size in cortical (penumbral) and striatal (core) regions [3]: completely ineffective; also recorded: no effect |
| SNECIRKWLSCVDRKNDCCEGLECYKRRHSFEVCVPGGGGGGFCLVKWKQCDGRERDCCAGLECWKRSGNKSSVCAPIT (disulfide 4-19, 11-24, 18-34, 44-59, 51-64, 58-75) [EP 3] | > 4 |  |  | 80 |  | Inhibition of rASIC1a currents ([1]; applied at up to 1 μM): ≤ 20% |
| SNECIRKWLSCVDRKNDCCEGLECYKRRRSFEVCVPIPGFCLVKWKQCDGRERDCCAGLECWKRSGNKSSVCAPIT (disulfide 4-19, 11-24, 18-34, 41-56, 48-61, 55-72) [Hi1a H28R] | 0.115 | No |  | 20 |  | Potency compared to wild-type Hi1a (in words) [1]: slightly increased potency |
| QECIAKWKSCAGRKLDCCEGLECWKRRWGHEVCVPITQKIFCLEKWKSCFERKYDCCEELECWERRGNKHPVCAPKQ (disulfide 3-18, 10-23, 17-33, 42-57, 49-62, 56-73) [Hi1d] |  | Yes | complete |  |  |  |
| Hi1a_C: C-terminal ICK domain of Hi1a expressed separately in E. coli, SEQ ID NO:21 (IPGFCLVKWKQCDGRERDCCAGLECWKRSGNKSSVCAPIT; listed as Hadronyche infensa) |  |  |  |  |  | Effect on current ([1]; at 1 μM): minor potentiation; Inhibition ([1]; at 10 μM): negligible inhibition; Inhibitory effect ([1]; up to 30 μM): no observed inhibitory effect |
| SEDCIPKWKGCVNRHGDCCEGLECWKRRRSFEVCVPKTPKTIPGFCLVKWKQCDGRERDCCAGLECWKRSGNKSSVCAPIT (disulfide 4-19, 11-24, 18-34, 46-61, 53-66, 60-77) [PcTx1/Hi1a_C] | 1.3 | No | incomplete inhibition | ~35 | slowly reversible | Fold increase in IC50 (decrease in potency) relative to wild-type Hi1a [1]: 3 fold |
| CC[C@H](C)[C@@H]1NC(=O)[C@@H](NC(=O)[C@H](CCC(=O)O)NC(=O)[C@H](CC(N)=O)NC(=O)[C@@H](N)CO)CSSC[C@@H]2NC(=O)[C@@H]3CSSC[C@@H](C(=O)N[C@H](C(=O)N4CCC[C@H]4C(=O)N[C@H](C(=O)N4CCC[C@H]4C(=O)O)[C@@H](C)CC)C(C)C)NC(=O)[C@H](C(C)C)NC(=O)[C@H](CCC(=O)O)NC(=O)[C@H](Cc4ccccc4)NC(=O)[C@H](CO)NC(=O)[C@H](Cc4c[nH]cn4)NC(=O)[C@H](CCCNC(=N)N)NC(=O)[C@H](CCCNC(=N)N)NC(=O)[C@H](CCCCN)NC(=O)[C@H](Cc4ccc(O)cc4)NC(=O)[C@H](CSSC[C@H](NC(=O)[C@H](CO)NC(=O)[C@H](CC(C)C)NC(=O)[C@H](Cc4c[nH]c5ccccc45)NC(=O)[C@H](CCCCN)NC(=O)[C@H](CCCNC(=N)N)NC1=O)C(=O)N[C@@H](C(C)C)C(=O)N[C@@H](CC(=O)O)C(=O)N[C@@H](CCCNC(=N)N)C(=O)N[C@@H](CCCCN)C(=O)N[C@@H](CC(N)=O)C(=O)N[C@@H](CC(=O)O)C(=O)N3)NC(=O)[C@H](CCC(=O)O)NC(=O)[C@H](CC(C)C)NC(=O)CNC(=O)[C@H](CCC(=O)O)NC2=O [Hi1a_N] (H-SNECIRKWLSCVDRKNDCCEGLECYKRRHSFEVCVPIP-OH; disulfide 4-19, 11-24, 18-34) |  |  | fully inhibit |  | fully reversible | Fold lower potency than PcTx1 or full-length Hi1a [1]: ~1000 fold |
| SEDCIPKWKGCVNRHGDCCEGLECWKRRRSFEVCVPKTEDCIPKWKGCVNRHGDCCEGLECWKRRRSFEVCVPKTPKT (disulfide 4-19, 11-24, 18-34, 41-56, 48-61, 55-71) [EP 1] | 64 | No | full inhibition | 0 | slowly reversible | Fold increase in IC50 (decrease in potency) relative to wild-type Hi1a [1]: ~200 fold |
